In the NIST ThermoML archive (doi:10.1021/je025606c):

Legend:
[1] = Liquid; for kinematic viscosity: Capillary tube (Ostwald / Ubbelohde) method; for mass density: 1000 kPa, Vibrating tube method
[2] = molar heat capacity at constant pressure; conditions: Liquid

CCOCCOCC [1,2-diethoxyethane]
Conditions | kinematic viscosity [m2/s] | molar heat capacity at constant pressure [J/K/mol]
[1], 283.15 K, 101.3 kPa | 9.5e-07 | –
[1], 293.15 K, 101.3 kPa | 8.22e-07 | –
[1], 303.15 K, 101.3 kPa | 7.28e-07 | –
[1], 313.15 K, 101.3 kPa | 6.48e-07 | –
[1], 323.15 K, 101.3 kPa | 5.84e-07 | –
[1], 333.15 K, 101.3 kPa | 5.32e-07 | –
[1], 343.15 K, 101.3 kPa | 4.87e-07 | –
[2], 312.57 K, 1 kPa | – | 264.59
[2], 322.47 K, 1 kPa | – | 265.54
[2], 332.37 K, 1 kPa | – | 268.37
[2], 342.27 K, 1 kPa | – | 270.86
[2], 352.18 K, 1 kPa | – | 273.57
[2], 362.08 K, 1 kPa | – | 276.17
[2], 371.98 K, 1 kPa | – | 280.31
[2], 381.88 K, 1 kPa | – | 283.03
[2], 391.78 K, 1 kPa | – | 286.22
[2], 401.68 K, 1 kPa | – | 289.88
[2], 411.58 K, 1 kPa | – | 293.43
[2], 421.48 K, 1 kPa | – | 296.97

[1]
Conditions | mass density [kg/m3]
283.15 K | 862.9
293.15 K | 852.8
303.15 K | 842.6
313.15 K | 832.3
323.15 K | 822
333.15 K | 811.6
343.15 K | 801.1
353.15 K | 790.5
363.15 K | 779.6
373.15 K | 768.6
383.15 K | 757.2
393.15 K | 745.8
403.15 K | 734
413.15 K | 721.8
423.15 K | 709.4

COCC(C)OCC(C)OC (configuration not stated) [2-methoxy-1-(2-methoxy-1-methylethoxy)propane]
Conditions | kinematic viscosity [m2/s] | molar heat capacity at constant pressure [J/K/mol]
[1], 283.15 K, 101.33 kPa | 1.41e-06 | –
[1], 293.15 K, 101.33 kPa | 1.2e-06 | –
[1], 303.15 K, 101.33 kPa | 1.03e-06 | –
[1], 313.15 K, 101.33 kPa | 9.03e-07 | –
[1], 323.15 K, 101.33 kPa | 8.01e-07 | –
[1], 333.15 K, 101.33 kPa | 7.19e-07 | –
[1], 343.15 K, 101.33 kPa | 6.5e-07 | –
[1], 353.15 K, 101.33 kPa | 5.93e-07 | –
[1], 363.15 K, 101.33 kPa | 5.51e-07 | –
[1], 373.15 K, 101.33 kPa | 5.06e-07 | –
[1], 383.15 K, 101.33 kPa | 4.69e-07 | –
[1], 393.15 K, 101.33 kPa | 4.37e-07 | –
[1], 403.15 K, 101.33 kPa | 4.07e-07 | –
[1], 413.15 K, 101.33 kPa | 3.81e-07 | –
[1], 423.15 K, 101.33 kPa | 3.59e-07 | –
[2], 312.57 K, 1000 kPa | – | 328.67
[2], 322.47 K, 1000 kPa | – | 332.56
[2], 332.37 K, 1000 kPa | – | 336.62
[2], 342.27 K, 1000 kPa | – | 340.35
[2], 352.18 K, 1000 kPa | – | 345.22
[2], 362.08 K, 1000 kPa | – | 349.92
[2], 371.98 K, 1000 kPa | – | 354.14
[2], 381.88 K, 1000 kPa | – | 359.49
[2], 391.78 K, 1000 kPa | – | 364.69
[2], 401.68 K, 1000 kPa | – | 369.71
[2], 411.58 K, 1000 kPa | – | 373.93
[2], 421.48 K, 1000 kPa | – | 381.23

[1]
Conditions | mass density [kg/m3]
283.15 K | 913
293.15 K | 903.4
303.15 K | 894
313.15 K | 884.8
323.15 K | 875.4
333.15 K | 866
343.15 K | 856.5
353.15 K | 846.9
363.15 K | 837
373.15 K | 827.2
383.15 K | 817.2
393.15 K | 807.2
403.15 K | 797.1
413.15 K | 786.8
423.15 K | 776.3

CCCCOCCOCCOCCOCCCC [5,8,11,14-tetraoxaoctadecane]
Conditions | kinematic viscosity [m2/s] | molar heat capacity at constant pressure [J/K/mol]
[1], 283.15 K, 101.33 kPa | 5.42e-06 | –
[1], 293.15 K, 101.33 kPa | 4.16e-06 | –
[1], 303.15 K, 101.33 kPa | 3.3e-06 | –
[1], 313.15 K, 101.33 kPa | 2.7e-06 | –
[1], 323.15 K, 101.33 kPa | 2.25e-06 | –
[1], 333.15 K, 101.33 kPa | 1.92e-06 | –
[1], 343.15 K, 101.33 kPa | 1.67e-06 | –
[1], 353.15 K, 101.33 kPa | 1.46e-06 | –
[1], 363.15 K, 101.33 kPa | 1.3e-06 | –
[1], 373.15 K, 101.33 kPa | 1.17e-06 | –
[1], 383.15 K, 101.33 kPa | 1.04e-06 | –
[1], 393.15 K, 101.33 kPa | 9.49e-07 | –
[1], 403.15 K, 101.33 kPa | 8.68e-07 | –
[1], 413.15 K, 101.33 kPa | 7.98e-07 | –
[1], 423.15 K, 101.33 kPa | 7.37e-07 | –
[2], 312.57 K, 1000 kPa | – | 544.45
[2], 322.47 K, 1000 kPa | – | 547.86
[2], 332.37 K, 1000 kPa | – | 553.9
[2], 342.27 K, 1000 kPa | – | 559.14
[2], 352.18 K, 1000 kPa | – | 564.65
[2], 362.08 K, 1000 kPa | – | 571.48
[2], 371.98 K, 1000 kPa | – | 578.82
[2], 381.88 K, 1000 kPa | – | 584.33
[2], 391.78 K, 1000 kPa | – | 589.58
[2], 401.68 K, 1000 kPa | – | 597.71
[2], 411.58 K, 1000 kPa | – | 603.75
[2], 421.48 K, 1000 kPa | – | 612.15

[1]
Conditions | mass density [kg/m3]
283.15 K | 926.1
293.15 K | 917.7
303.15 K | 909.4
313.15 K | 901.2
323.15 K | 893
333.15 K | 884.8
343.15 K | 876.5
353.15 K | 868.2
363.15 K | 859.8
373.15 K | 851.4
383.15 K | 843
393.15 K | 834.5
403.15 K | 826.1
413.15 K | 817.6
423.15 K | 809.1

CCCCOCCOCCOCCCC [5,8,11-trioxapentadecane]
Conditions | kinematic viscosity [m2/s] | molar heat capacity at constant pressure [J/K/mol]
[1], 283.15 K, 101.33 kPa | 3.36e-06 | –
[1], 293.15 K, 101.33 kPa | 2.69e-06 | –
[1], 303.15 K, 101.33 kPa | 2.21e-06 | –
[1], 313.15 K, 101.33 kPa | 1.86e-06 | –
[1], 323.15 K, 101.33 kPa | 1.59e-06 | –
[1], 333.15 K, 101.33 kPa | 1.38e-06 | –
[1], 343.15 K, 101.33 kPa | 1.22e-06 | –
[1], 353.15 K, 101.33 kPa | 1.08e-06 | –
[1], 363.15 K, 101.33 kPa | 9.68e-07 | –
[1], 373.15 K, 101.33 kPa | 8.72e-07 | –
[1], 383.15 K, 101.33 kPa | 7.95e-07 | –
[1], 393.15 K, 101.33 kPa | 7.28e-07 | –
[1], 403.15 K, 101.33 kPa | 6.7e-07 | –
[1], 413.15 K, 101.33 kPa | 6.21e-07 | –
[1], 423.15 K, 101.33 kPa | 5.78e-07 | –
[2], 312.57 K, 1000 kPa | – | 456.53
[2], 322.47 K, 1000 kPa | – | 460.9
[2], 332.37 K, 1000 kPa | – | 465.49
[2], 342.27 K, 1000 kPa | – | 470.51
[2], 352.18 K, 1000 kPa | – | 475.75
[2], 362.08 K, 1000 kPa | – | 480.33
[2], 371.98 K, 1000 kPa | – | 486.88
[2], 381.88 K, 1000 kPa | – | 493.65
[2], 391.78 K, 1000 kPa | – | 500.42
[2], 401.68 K, 1000 kPa | – | 505.44
[2], 411.58 K, 1000 kPa | – | 512.21
[2], 421.48 K, 1000 kPa | – | 517.89

[1]
Conditions | mass density [kg/m3]
283.15 K | 891.6
293.15 K | 883.2
303.15 K | 875
313.15 K | 866.8
323.15 K | 858.5
333.15 K | 850.4
343.15 K | 842.1
353.15 K | 833.7
363.15 K | 824.9
373.15 K | 816.5
383.15 K | 807.9
393.15 K | 799.4
403.15 K | 790.8
413.15 K | 782.1
423.15 K | 773.3

CCOCCOCCOCC [diethylene glycol diethyl ether]
Conditions | kinematic viscosity [m2/s] | molar heat capacity at constant pressure [J/K/mol]
[1], 283.15 K, 101.33 kPa | 1.84e-06 | –
[1], 293.15 K, 101.33 kPa | 1.5e-06 | –
[1], 303.15 K, 101.33 kPa | 1.27e-06 | –
[1], 313.15 K, 101.33 kPa | 1.09e-06 | –
[1], 323.15 K, 101.33 kPa | 9.56e-07 | –
[1], 333.15 K, 101.33 kPa | 8.48e-07 | –
[1], 343.15 K, 101.33 kPa | 7.6e-07 | –
[1], 353.15 K, 101.33 kPa | 6.91e-07 | –
[1], 363.15 K, 101.33 kPa | 6.33e-07 | –
[1], 373.15 K, 101.33 kPa | 5.77e-07 | –
[1], 383.15 K, 101.33 kPa | 5.32e-07 | –
[1], 393.15 K, 101.33 kPa | 4.93e-07 | –
[1], 403.15 K, 101.33 kPa | 4.59e-07 | –
[1], 413.15 K, 101.33 kPa | 4.29e-07 | –
[1], 423.15 K, 101.33 kPa | 4.02e-07 | –
[2], 312.57 K, 1000 kPa | – | 349.11
[2], 322.47 K, 1000 kPa | – | 351.22
[2], 332.37 K, 1000 kPa | – | 353.33
[2], 342.27 K, 1000 kPa | – | 355.44
[2], 352.18 K, 1000 kPa | – | 358.68
[2], 362.08 K, 1000 kPa | – | 360.79
[2], 371.98 K, 1000 kPa | – | 364.85
[2], 381.88 K, 1000 kPa | – | 368.9
[2], 391.78 K, 1000 kPa | – | 372.15
[2], 401.68 K, 1000 kPa | – | 377.01
[2], 411.58 K, 1000 kPa | – | 380.75
[2], 421.48 K, 1000 kPa | – | 384.8

[1]
Conditions | mass density [kg/m3]
283.15 K | 917.4
293.15 K | 907.9
303.15 K | 898.4
313.15 K | 889
323.15 K | 879.5
333.15 K | 870
343.15 K | 860.2
353.15 K | 850
363.15 K | 840.2
373.15 K | 830.3
383.15 K | 820.4
393.15 K | 810.3
403.15 K | 800
413.15 K | 789.7
423.15 K | 779.2
